Experimental data published in US5877185A, “Synergistic compositions useful as anti-tumor agents” (priority 1995, dated 1999).
pIC50: −log10 of the molar value. Read-outs that look alike come from different tables or passages of the source.

Assays:
E ras cells = experiment: cytostatic and cytocidal activity; assay type: cell-based, bovine; settings: for cytostatic and cytocidal effects: at the concentrations given above; for pIC50: Bos taurus, average of three trials
Text: pADPRT ligands that oxidize CCHC zinc fingers are not unique inhibitors of pADPRT. […] Hakam et al., FEBS Lett. 193:1-4 (1991). These ligands bind non-covalently to the nicotinamide site and internal DNA-seeking domains of pADPRT. Bauer et al., manuscript in preparation (1994). In contrast, CCHC-oxidizing ligands also bind non-covalently to the nicotinamide site, but initially attack the F1 zinc finger oxidatively. Id. […] Id. […] U.S. Ser. No. 08/076,313 filed Jun. 11, 1993.
Each value is the average of three trials. Each trial deviated from the average by no more than twenty percent. […] Another isomer of the iodo-nitro-benzamide series, 2-iodo-4-nitrobenzamide had no effect at the concentrations given above.

[1] = solubility and stability of nitro versus nitroso compound; assay type: physicochemical
[2] = system: leukemic and other malignant human cells; settings: cited from earlier work
[3] = system: normal bone marrow progenitor cells; settings: tumoricidal concentrations; cited from earlier work
HIV-1 NC zinc fingers = settings: isolated HIV-1 NC zinc fingers and intact HIV-1 virions; cited from earlier work
HIV-1 (LAV strain) = experiment: in vitro anti-retroviral testing (HIV-1 inactivation) in human peripheral lymphocytes (PBL); assay type: cell-based
Protocol: Both 6-NOBP and NOBA were tested on viral growth of HIV-1 (LAV strain) in phytohemagglutinin-stimulated human peripheral lymphocytes (PBL). An HIV-1 stock having an infectivity titer of 100,000 TCID50 was incubated for 30 min. at 22° C. with either of the drugs. Control HIV samples, containing no drugs, were incubated in the same manner. […] At the end of this incubation cultures were assayed for productive infection by an immunoassay for HIV-1 antigens and by reverse transcriptase as described in McDougal et al., J. Immunol. Methods 76:171-183 (1985). Virus titers were expressed as percentile values (percent infected cultures) compared to the controls, containing HIV dilutions which were not preincubated with the C-nitroso drugs. In a separate series of experiments, HIV-1 dilutions and C-nitroso drugs (see upper abscissa) were not preincubated but were added simultaneously to lymphocytes in exactly the same concentrations as described previously (i.e., following preincubation) and viral growth monitored 9 days later.

neutrophil granulocytes = settings: tumoricidal concentrations; cited from earlier work
[4] = system: human immunodeficiency virus HIV-1; settings: human lymphocytes; cited from earlier work
MT-2 cells = experiment: effectiveness on human T-lymphoblastoid leukemia cells, MT-2; assay type: cell-based; settings: for pIC50: Homo sapiens, MT2, concentration decreasing cell viability to 50% of control, 48 h incubation, read-out: I50; for LD100: zero viability after 48 hours of incubation
Protocol: (§1) IV. Effectiveness of 4-(halogen)-3-nitro-benzamide compounds as tested with human T-lymphoblastoid leukemia cell lines in culture.
(§2) Cells (MT-2 cells, or, in case of 3-fluoro-4-nitro-benzamide, CEM-4 cells) were seeded at a density of 0.1×10^5 /ml; the drugs were added at the time of seeding. The cultures were incubated at 37° C. in a 5% CO2 atmosphere and the cells numbers were monitored by hemacytometer counting in 24 hr intervals.

AA-2 leukemia cells = experiment: cytocidal effect in combination with ascorbate
Protocol: Because of the in vitro reactivity of the nitroso group of INOBA with both ascorbate and GSH, the apoptosis-inducing effect of NOBA with the action of the prodrug INO2 BA in the presence of ascorbate, added simultaneously with both drugs was compared.
AA-2 cells were seeded at a density of 0.2×10^6 cells/ml. Drugs and/or sodium ascorbate were added at the time of seeding, and cells were counted by hemacytometer after incubation (37° C., 5% CO^2) for 18 hr (Day 1) and for 42 hr (Day 2). Viability was evaluated by Trypan Blue exclusion.

CEM-4 cells = experiment: effectiveness on human T-lymphoblastoid leukemia cells, CEM-4; assay type: cell-based
Protocol: as §1, §2

[5] = system: L-1210 Murine Leukemia Cells; experiment: effect of nitroso- and nitro-compounds in L-1210 murine leukemia cells (suspension); assay type: cell-based; settings: drug exposure 18 hours
Protocol: II. I50 and LD100 Values for Nitroso- and Nitro-Compounds in (A) Mammary Cancer Cells (monolayer cultures) and in (B) L-1210 Murine Leukemia Cells (suspension culture).
Cells were seeded at 5×10^4 to 2×10^5 /ml; drugs were added at the time of seeding; drug exposure was for 18 hours.

Molt-4 cells = experiment: time course of cell killing alone and with BSO, Molt-4; assay type: cell-based; settings: Molt-4, 2-3 day period; 4 μM drug, 1 mM BSO
Protocol: (§3) Molt 4-cells were seeded at a density of 0.05×10^6 cell/ml in the recommended growth medium in the absence or the presence of drugs as indicated. Cells were incubated at 37° C. in a 5% CO2 atmosphere and proliferation was monitored in 14 hr. by cell counting in a hemacytometer. .smallcircle., untreated control; .circle-solid., treated with 4 μM 4-iodo-3-nitrobenzoic acid; .gradient., treated with 1 mM BSO; .tangle-soliddn., treated with 4 μM-iodo-3-nitrobenzoic acid and 1 mM BSO; .quadrature., treated with 4 μM 4-INO2 BA; .box-solid., treated with 1 mM BSO; .gradient., treated with 4 μM INO2 BA and 1 mM BSO. L-1210 cells were seeded at a density of 0.05×10^6 cells/ml either from untreated stock suspensions or from 24-hr. pretreated (0.2×10^6 cells/ml) suspensions. .smallcircle., untreated control; .circle-solid., treated with […] NOBA; .gradient., treated with 1 mM BSO; .tangle-soliddn., 24-hr pretreatment with 1 mM BSO then treated with 4 μM NOBA.
(§4) A time course of the cell killings by 4-iodo-3-nitrobenzoic acid, INO2 BA and NOBA, each alone and in combination with BSO was obtained. Molt-4 cells were seeded at a density of 0.05×10^6 cells/ml in the recommended growth medium in the absence or presence of drugs as indicated in FIG. 3. Drugs were added to the wells immediately after seeding from 10-40 mM stock solution in DMSO. BSO was added from a 100 mM aqueous stock solution. Cells were incubated at 37° C. in a 5% CO2 atmosphere and proliferation was monitored in 14 hours by cell counting in a hemacytometer.

L-1210 cells = experiment: time course of cell killing alone and with BSO, L-1210; assay type: cell-based, murine; settings: L-1210, 2-3 day period; 1 mM BSO
Protocol: as §3, §4

NC(=O)c1ccc([N+](=O)[O-])cc1I [2-iodo-4-nitrobenzamide]
cytostatic and cytocidal effects (E ras cells): no effect

O=Nc1ccc2oc(=O)ccc2c1 [NOBP, 6-nitroso-1,2-benzopyrone]
stability and solubility [1]: poorly soluble
suppression of proliferation [2]: completely suppressed
effect on normal bone marrow progenitor cells [3]: relatively harmless
zinc ejection (HIV-1 NC zinc fingers): eject zinc
TCID50 (calculated infectious titer after treatment) (HIV-1 (LAV strain); 100 μM): 102 TCID50
log reduction at 100 µM (HIV-1 (LAV strain); Human immunodeficiency virus 1, Lymphocyte, 0.5 h, 100 μM, of TCID50, read-out: Decrease): 3.24
inhibition at 100 µM (HIV-1 (LAV strain); Human immunodeficiency virus 1, Lymphocyte, 100 μM): 99.9%
effect on superoxide formation by neutrophil granulocytes (neutrophil granulocytes): relatively harmless
inhibition of HIV-1 infection [4]: inhibit infection

NC(=O)c1ccc(Cl)c([N+](=O)[O-])c1 [4-chloro-3-nitro-benzamide]
pIC50 (MT-2 cells): 3.89
LD100 (MT-2 cells): 300

O=C1O[C@H]([C@@H](O)CO)C([O-])=C1O.[Na+] [Ascorbate, sodium ascorbate, reference compound]
effect on AA-2 leukemia cells by itself (AA-2 leukemia cells; 160 μM): no effect
cell number Day 1 (AA-2 leukemia cells; ascorbate 160 μM, 18 hr): 480000 mL⁻¹
cell number Day 2 (AA-2 leukemia cells; ascorbate 160 μM, 42 hr): 900000 mL⁻¹

NC(=O)c1ccc(F)c([N+](=O)[O-])c1 [4-fluoro-3-nitro-benzamide]
pIC50 (CEM-4 cells; Homo sapiens, concentration decreasing cell viability to 50% of control, read-out: I50): 3.92
LD100 (CEM-4 cells; zero viability after 48 hours of incubation): 280

O=c1ccc2cc([N+](=O)[O-])ccc2o1 [NO2 BP, 6-Nitro-1,2-benzopyrone]
stability and solubility [1]: more stable and soluble than the active nitroso compound
I50 [5]: 35 nanomoles/10^5 cells
LD100 [5]: 80 nanomoles/10^5 cells
inhibition of HIV-1 activity in human lymphocytes (HIV-1 (LAV strain)): 52%
TCID50 (calculated infectious titer after treatment) (HIV-1 (LAV strain); 500 μM): 85,114 TCID50
inhibition at 500 µM (HIV-1 (LAV strain); Human immunodeficiency virus 1, Lymphocyte): 52.1%
log reduction at 500 µM (HIV-1 (LAV strain); Human immunodeficiency virus 1, Lymphocyte, 0.5 h, read-out: Decrease): 0.32

NC(=O)c1cc([N+](=O)[O-])ccc1I [2-iodo-5-nitrobenzamide]
pIC50 (E ras cells; E ras cells, read-out: Cytostatic Effect I50): 4.92
pIC50 (E ras cells; with 0.8 mM BSO, read-out: Cytocidal Effect I50): 5.70
cytostatic and cytocidal effects (E ras cells): more effective of the two isomers

O=C(O)c1ccc(I)c([N+](=O)[O-])c1 [4-iodo-3-nitrobenzoic acid]
effect on cell proliferation (Molt-4 cells): no significant effect
I50 [5]: 16 nanomoles/10^5 cells
LD100 [5]: 32 nanomoles/10^5 cells
effect on cell proliferation (L-1210 cells): no significant effect

NC(=O)c1ccc(Br)c([N+](=O)[O-])c1 [4-bromo-3-nitro-benzamide]
pIC50 (MT-2 cells): 3.92
LD100 (MT-2 cells): 290
